Test results from patent publication US20050282818A1, “Ubiquitin ligase inhibitors” (Rigel Pharmaceuticals, Inc., priority 2004, published 2005).

Legend:
[1] = tested on: ICAM-1 expression in A549 cells; assay: ICAM assay (IL-1 induced ICAM-1/CD54 expression in A549 cells); format: cell-based, human; settings: Homo sapiens, A549, ICAM assay
Description: The expression of intercellular adhesion molecule (ICAM)-1 in endothelial cells is pivotal in supporting lymphocyte migration across the vascular endothelium. TNF/IL-1 induces the NF-kB pathway in which NF-kB acts as a transcription factor and activation of NF-kB induces ICAM expression. IkB inhibits NF-KB by binding to it and retaining NF-kB in the cytoplasm. Upon cytokine stimulation, several signaling molecule including TRAF6, IKKs, and TAK1 are activated which lead to the phosphorylation of IkB. Phosphorylated IkB is then ubiquitinated by the SCF complex and degraded by proteasome, thereby releasing NF-kB to translocate into the nucleus. In the nucleus, NF-kB binds to DNA and activates transcription of various genes that are involved in inflammation, cell survival, and apoptosis. The ICAM assay is a primary assay for HTS as well as a cell based assay for TRAF6 inhibitors.
The following materials are used 96-well plates; F12K complete medium that includes 10% FBS and 1% P/S (penicillin/streptomycin); 1×PBS; 5 ug/ml IL-1, Human CD54 (CALTAG Laboratory, Cat#MHCD5400-4); anti-mouse-IgG (Jackson Lab, Cat#115-035 146); and A549 cells.
Procedure. 10,000 A549 cells/well were seeded in 100 μl F12K complete medium in a 96-well white plate. The seeded plate was incubate at 37° C. incubator in 5% CO2 overnight. After the overnight incubation, 4 μl of diluted test compound was added and incubated for 1 hour at 37° C. After the 1 hour incubation, 4 μl of 25 ng/ml IL-1 was added to each well and the cells were stimulated at 37° C. for 4 hours.
After stimulation, the cells were stained with CD54 (1:1000 diluted with medium) and anti-mouse IgG (1:1100 diluted with medium) for 1 hour. Subsequently, the medium was removed and each well was washed with 200 μl of PBS three times. Detection of activity was performed by addition of 100 μl/well of lumino substrate.

[2] = molecular target: T1, TRAF6/Uev1A/Ubc13 (Homo sapiens, UniProt Q9Y4K3); assay: TRAF6/Uev1A/Ubc13 plate-based ubiquitin ligase assay; format: biochemical
T1 sequence (Q9Y4K3 1-522): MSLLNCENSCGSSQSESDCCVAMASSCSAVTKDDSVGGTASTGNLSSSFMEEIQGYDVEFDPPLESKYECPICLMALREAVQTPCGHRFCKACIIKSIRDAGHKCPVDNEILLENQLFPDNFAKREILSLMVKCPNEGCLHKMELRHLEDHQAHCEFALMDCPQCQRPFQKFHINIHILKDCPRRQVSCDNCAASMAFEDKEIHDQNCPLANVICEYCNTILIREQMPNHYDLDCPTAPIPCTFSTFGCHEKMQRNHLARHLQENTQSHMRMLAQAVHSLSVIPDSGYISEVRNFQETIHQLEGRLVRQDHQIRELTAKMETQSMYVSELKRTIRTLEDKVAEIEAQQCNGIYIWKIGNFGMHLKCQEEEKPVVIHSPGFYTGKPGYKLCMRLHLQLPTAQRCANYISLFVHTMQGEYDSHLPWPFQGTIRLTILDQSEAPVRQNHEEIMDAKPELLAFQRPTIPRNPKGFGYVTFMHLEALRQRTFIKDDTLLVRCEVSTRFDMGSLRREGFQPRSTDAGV
In short: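 Ligase activity was read as luminescence from anti-Flag/HRP detection of Flag-ubiquitin bound to casein-blocked Ni-plates alongside His-ubiquitin after a 1 h room-temperature reaction. Buffer: 62.5 mM Tris pH 7.5, 6.25 mM MgCl2, 1.0 mM DTT, 2 μM ATP; E1, Uev1a/Ubc13 and TRAF6 added last to start. IC50s derived across compound concentrations.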

[3] = molecular target: APC11/APC2 (Homo sapiens, UniProt Q9NYG5+Q9UJX6); assay: APC-11/APC-2 ligase assay (APC auto ubiquitination); format: biochemical; settings: APC assay
Procedure: For the assays described below, the TRAF6/Uev1A/UBC13 assay is the biochemical plate-based assay of TRAF6 ligase activity using Ubc13 as the E2 enzyme. The gel-based assay is the biochemical solution-based TRAF6 ligase assay (by SDS-PAGE and Western blot) to confirm the plate-based ELISA assay. The APC assay is an assay which is another E3 ligase (APC2/APC11) biochemical assay.
E3 (His APC11/APC2— “APC”) auto ubiquitination was measured as described in U.S. patent application Ser. No. 09/826,312 (Publication No. U.S. 2002 0042083 A1), which is incorporated by reference in its entirety. Details of the protocol are described below. Activity in the presence of the compound was determined relative to a parallel control in which only DMSO was added. Values of the IC50 were typically determined using 6 or 8 different concentrations of the compound, although as few as 2 concentrations may be used to approximate the IC50 value.
Nickel coated 96 well plates (Pierce 15242) were blocked for 1 hour with 100 μl of blocking buffer at room temperature. The plates were washed 4 times with 225 μl of 1 […]PBS and 80 μl of the reaction buffer were added that contained 100 ng/well of Flag ubiquitin. To this, 10 μl of the test compound diluted in DMSO were added. After the test compound was added, 10 μl of E1 (human), E2 (Ubch5c), and APC in Protein Buffer was added to obtain a final concentration of 5 ng/well of E1, 20 ng/well of E2 and 100 ng/well of APC. The plates were shaken for 10 minutes and incubated at room temperature for 1 hour. After incubation, the plates were washed 4 times with 225 μl of 1×PBS and 100 μl/well of Antibody Mix were added to each well. The plates were incubated at room temperature for another hour after which they were washed 4 times with 225 μl of 1×PBS and 100 μl/well of Lumino substrate were added to each well. The luminescence was measured by using a BMG luminescence microplate reader. The Blocking Buffer (1% Casein in 1×PBS) was stored at 4° C. until use.
The reaction buffer consisted of 62.5 mM Tris pH 7.6 (Trizma Base—Sigma T 8524), 3 mM MgCl2 (Magnesium Chloride—Sigma M 2393), 1 mM DTT (Sigma D 9779), 2.5 mM ATP (Roche Boehringer Mann Corp. 635 316), 100 ng/well of Flag ubiquitin, 0.1% BSA (Sigma A 7906), and 0.05% Tween 20 (Sigma P 7949).
The Protein Buffer consisted of 20 mM Tris pH 7.6, 10% glycerol (Sigma G 5516) and 1 mM DTT.
The antibody mix consisted of 0.25% BSA (Sigma A 7906) in 1×PBS, 1/50,000 anti Flag (Sigma F 3165), 1/100,000 of anti Mouse IgG HRP (Jackson Imrunoresearch #115 035 146).
The substrate mix consisted of SuperSignal Substrate from Pierce (catalog number 37070ZZ) and was prepared by mixing 100 ml of the peroxide solution, 100 ml of the enhancer solution and 100 ml of Milli Q® water.

APC11/APC2, sequence (Q9NYG5 whole entry): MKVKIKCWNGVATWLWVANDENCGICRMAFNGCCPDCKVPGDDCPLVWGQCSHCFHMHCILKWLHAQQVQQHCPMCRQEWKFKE
APC11/APC2, sequence (Q9UJX6 whole entry): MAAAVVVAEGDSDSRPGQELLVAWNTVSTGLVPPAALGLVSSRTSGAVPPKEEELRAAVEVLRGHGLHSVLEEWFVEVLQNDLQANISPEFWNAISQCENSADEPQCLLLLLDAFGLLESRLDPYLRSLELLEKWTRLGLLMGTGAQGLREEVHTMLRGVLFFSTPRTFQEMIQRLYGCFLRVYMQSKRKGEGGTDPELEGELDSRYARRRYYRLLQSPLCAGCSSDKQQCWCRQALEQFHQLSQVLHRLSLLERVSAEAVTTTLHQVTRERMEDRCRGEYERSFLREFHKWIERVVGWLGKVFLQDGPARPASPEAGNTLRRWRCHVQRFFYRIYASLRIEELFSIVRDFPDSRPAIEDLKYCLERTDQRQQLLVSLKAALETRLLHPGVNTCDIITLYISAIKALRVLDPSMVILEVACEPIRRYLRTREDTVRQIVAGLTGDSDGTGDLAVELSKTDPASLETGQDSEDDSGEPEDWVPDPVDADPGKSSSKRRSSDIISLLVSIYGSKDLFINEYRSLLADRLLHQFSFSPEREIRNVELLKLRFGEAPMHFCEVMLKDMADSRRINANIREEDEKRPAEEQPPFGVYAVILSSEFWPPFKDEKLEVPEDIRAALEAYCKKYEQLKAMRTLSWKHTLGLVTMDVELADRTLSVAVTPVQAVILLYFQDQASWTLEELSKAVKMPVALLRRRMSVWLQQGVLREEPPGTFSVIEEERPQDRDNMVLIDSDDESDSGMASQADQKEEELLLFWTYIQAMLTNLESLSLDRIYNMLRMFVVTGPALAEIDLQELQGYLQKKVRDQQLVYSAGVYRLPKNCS

| SMILES | IC50 [1] [µM] | IC50 [2] [µM] | IC50 [3] [µM] |
| --- | --- | --- | --- |
| Cc1cccc(C(C)C)c1NS(=O)(=O)c1ccc(Cl)c2nonc12 [compound 352, 7-chloro-N-(2-isopropyl-6-methylphenyl)-2,1,3-benzoxadiazole-4-sulfonamide] | 1 to 20 | ≥ 20 | ≥ 20 |
| Cc1cccc(C)c1NS(=O)(=O)c1ccc(Cl)c2nonc12 [compound 353, 7-chloro-N-(2,6-dimethylphenyl)-2,1,3-benzoxadiazole-4-sulfonamide] | 1 to 20 | ≥ 20 | ≥ 20 |
| Cc1ccc(NS(=O)(=O)c2ccc(Cl)c3nonc23)c(Cl)c1 [compound 354, 7-chloro-N-(2-chloro-4-methylphenyl)-2,1,3-benzoxadiazole-4-sulfonamide] | 1 to 20 | ≥ 20 | ≥ 20 |
| Cc1cc(C)c(NS(=O)(=O)c2ccc(Cl)c3nonc23)c(C)c1 [compound 355, 7-chloro-N-mesityl-2,1,3-benzoxadiazole-4-sulfonamide] | ≥ 20 | ≥ 20 | ≥ 20 |
| COc1ccccc1NS(=O)(=O)c1ccc(Cl)c2nonc12 [compound 356, 7-chloro-N-(2-methoxyphenyl)-2,1,3-benzoxadiazole-4-sulfonamide] | 1 to 20 | ≥ 20 | ≥ 20 |
| O=S(=O)(Nc1c(F)cc(F)cc1F)c1ccc(Cl)c2nonc12 [compound 357, 7-chloro-N-(2,4,6-trifluorophenyl)-2,1,3-benzoxadiazole-4-sulfonamide] | ≥ 20 | ≥ 20 | ≥ 20 |
| Cc1cc(F)ccc1NS(=O)(=O)c1ccc(Cl)c2nonc12 [compound 358, 7-chloro-N-(4-fluoro-2-methylphenyl)-2,1,3-benzoxadiazole-4-sulfonamide] | ≥ 20 | ≥ 20 | ≥ 20 |
| COc1ccc(OC)c(NS(=O)(=O)c2ccc(Cl)c3nonc23)c1 [compound 359, 7-chloro-N-(2,5-dimethoxyphenyl)-2,1,3-benzoxadiazole-4-sulfonamide] | 1 to 20 | ≥ 20 | ≥ 20 |
| COC(=O)c1ccc(Cl)cc1NS(=O)(=O)c1ccc(Cl)c2nonc12 [compound 360, methyl 4-chloro-2-{[(7-chloro-2,1,3-benzoxadiazol-4-yl)sulfonyl]amino}benzoate] | 1 to 20 | ≥ 20 | ≥ 20 |
| COC(=O)c1ccc(Cl)cc1Nc1ccc(S(=O)(=O)Nc2cc(Cl)ccc2C(=O)OC)c2nonc12 [compound 361, methyl 4-chloro-2-(7-[N-{5-chloro-2-(methoxycarbonyl)phenyl}sulfamoyl]-2,1,3-benzoxadiazol-4-ylamino)benzoate] | ≥ 20 | 1 to 20 | ≥ 20 |
| COc1cc(Cl)c(C)cc1NS(=O)(=O)c1ccc(Cl)c2nonc12 [compound 362, 7-chloro-N-(4-chloro-2-methoxy-5-methylphenyl)-2,1,3-benzoxadiazole-4-sulfonamide] | 1 to 20 | ≥ 20 | ≥ 20 |
| O=S(=O)(Nc1ccc2[nH]ccc2c1)c1ccc(Cl)c2nonc12 [compound 363, 7-chloro-N-(1H-indol-5-yl)-2,1,3-benzoxadiazole-4-sulfonamide] | 1 to 20 | ≥ 20 | ≥ 20 |
| O=S(=O)(Nc1ccc(F)cc1F)c1ccc(Cl)c2nonc12 [compound 364, 7-chloro-N-(2,4-difluorophenyl)-2,1,3-benzoxadiazole-4-sulfonamide] | ≥ 20 | ≥ 20 | ≥ 20 |
| O=S(=O)(Nc1cc(Cl)ccc1Cl)c1ccc(Cl)c2nonc12 [compound 365, 7-chloro-N-(2,5-dichlorophenyl)-2,1,3-benzoxadiazole-4-sulfonamide] | ≥ 20 | ≥ 20 | ≥ 20 |
| O=S(=O)(Nc1ccccc1OC(F)(F)F)c1ccc(Cl)c2nonc12 [compound 366, 7-chloro-N-(2-[trifluoromethoxy]phenyl)-2,1,3-benzoxadiazole-4-sulfonamide] | 1 to 20 | ≥ 20 | ≥ 20 |
| COc1ccc(OC)c(NS(=O)(=O)c2ccc(Nc3ccccc3OC)c3nonc23)c1 [compound 367, N-(2,5-dimethoxyphenyl)-7-([2-methoxyphenyl]amino)-2,1,3-benzoxadiazole-4-sulfonamide] | ≥ 20 | ≥ 20 | ≥ 20 |
| Cc1cc(NS(=O)(=O)c2ccc(Cl)c3nonc23)no1 [compound 368, 7-chloro-N-(5-methylisoxazol-3-yl)-2,1,3-benzoxadiazole-4-sulfonamide] | ≥ 20 | ≥ 20 | ≥ 20 |
| COc1ccc(OC)c(NS(=O)(=O)c2ccc(N3CCOCC3)c3nonc23)c1 [compound 369, N-(2,5-dimethoxyphenyl)-7-(morpholin-4-yl)-2,1,3-benzoxadiazole-4-sulfonamide] | ≥ 20 | ≥ 20 | ≥ 20 |
| Cc1cc2cc(NS(=O)(=O)c3ccc(Cl)c4nonc34)ccc2[nH]1 [compound 370, 7-chloro-N-(2-methyl-1H-indol-5-yl)-2,1,3-benzoxadiazole-4-sulfonamide] | 1 to 20 | ≥ 20 | ≥ 20 |
| O=S(=O)(Nc1ccc(F)cc1F)c1ccc(Nc2ccc(F)cc2F)c2nonc12 [compound 371, N-(2,4-difluorophenyl)-7-([2,4-difluorophenyl]amino)-2,1,3-benzoxadiazole-4-sulfonamide] | ≥ 20 | ≥ 20 | ≥ 20 |
